Results published in PMC8842277, “Highly Antiproliferative Latonduine and Indolo[2,3-c]quinoline Derivatives: Complex Formation with Copper(II) Markedly Changes the Kinase Inhibitory Profile” (Journal of Medicinal Chemistry, 2022).
Where “and” joins values, the source holds several entries; their conditions need not be identical. Equal values may be shown once. Read-outs that look alike come from different tables or passages of the source.

Columns and labels:
[1] = Solubility in water/DMSO 99/1; assay type: physicochemical
Procedure: To a solution of HL^1 (203 mg, 0.45 mmol) in isopropanol (10 mL) a solution of CuCl2·2H2O (77 mg, 0.45 mmol) in methanol (500 μL) was added. The mixture was heated at reflux for 1 h, cooled to room temperature, and allowed to stand at 4 °C overnight. The product was filtered off, washed with isopropanol (3 mL), and dried in vacuo overnight to give a red-brown powder. Yield: 245 mg. Solubility in water/DMSO 99/1: ≥11 mg mL^–1.

[2] = system: doxorubicin-sensitive Colo205 human colon adenocarcinoma cells; assay: MTT antiproliferative assay; assay type: cell-based; settings: for selectivity factor (SF) Colo205: IC50 MRC-5/IC50 Colo205; for IC50: MTT, 72 h
Procedure: (§1) The in vitro antiproliferative activity of the compounds was tested in doxorubicin-sensitive Colo205 and multidrug-resistant Colo320 human colon adenocarcinoma cell lines as well as in normal human embryonal lung fibroblast cells (MRC-5) by MTT assay.
(§2) Human colonic adenocarcinoma cell lines Colo 205 doxorubicin-sensitive (ATCC-CCL-222) and Colo 320/MDR-LRP multidrug resistant over-expressing ABCB1 (MDR1)-LRP (ATCC-CCL-220.1) were purchased from LGC Promochem, Teddington, UK. The cells were cultured in an RPMI 1640 medium supplemented with 10% heat-inactivated fetal bovine serum, 2 mM L-glutamine, 1 mM Na-pyruvate, and 10 mM HEPES. The semi-adherent human colon cancer cells were detached with Trypsin-Versene (EDTA) solution for 5 min at 37 °C. An MRC-5 human embryonal lung fibroblast cell line (ATCC CCL-171) was purchased from LGC Promochem, Teddington, UK. The cells were cultured in Eagle’s minimal essential medium (EMEM, containing 4.5 g L^–1 glucose) supplemented with a non-essential amino acid mixture, a selection of vitamins, and 10% heat-inactivated fetal bovine serum. The HCT-116 colon carcinoma cells and isogenic p53-knock-out subline were a gift of Prof. Bert Vogelstein from The Johns Hopkins Oncology Center. Cells were cultured in McCoy’s 5A medium supplemented with 10% heat-inactivated fetal bovine serum and 4 mM L-glutamine. All cell lines were incubated at 37 °C, in a 5% CO2, 95% air atmosphere.
(§3) MRC-5 non-cancerous human embryonic lung fibroblast and human colonic adeno-carcinoma cell lines (doxorubicin-sensitive Colo 205 and multidrug resistant Colo 320 colonic adenocarcinoma cells) were used to determine the effect of compounds on cell growth. The effects of increasing concentrations of compounds on cell growth were tested in 96-well flat-bottomed microtiter plates. The compounds were dissolved in DMSO and stock solutions of 10 mM were prepared. These were further diluted in the appropriate cell culture medium by twofold serial dilution starting from 100 or 10 μM for the compounds. The adherent human embryonal lung fibroblast cells were cultured in 96-well flat-bottomed microtiter plates using EMEM supplemented with 10% heat-inactivated fetal bovine serum. The density of the cells was adjusted to 1 × 10^4 cells in 100 μL per well, the cells were seeded for 24 h at 37 °C, 5% CO2, then the medium was removed from the plates containing the cells, and the dilutions of compounds previously made in a separate plate were added to the cells in 200 μL. In the case of the colonic adenocarcinoma cells, the twofold serial dilutions of compounds were prepared in 100 μL of RPMI 1640, horizontally. The semi-adherent colonic adenocarcinoma cells were treated with Trypsin-Versene (EDTA) solution. They were adjusted to a density of 1 × 10^4 cells in 100 μL of RPMI 1640 medium and were added to each well, with the exception of the medium control wells. The final volume of the wells containing compounds and cells was 200 μL. The culture plates were incubated at 37 °C for 72 h; at the end of the incubation period, 20 μL of MTT (thiazolyl blue tetrazolium bromide, Sigma) solution (from a stock solution of 5 mg mL^–1) was added to each well. After incubation at 37 °C for 4 h, 100 μL of sodium dodecyl sulfate (SDS) (Sigma) solution (10% in 0.01 M HCI) was added to each well and the plates were further incubated at 37 °C overnight. Cell growth was determined by measuring the optical density (OD) at 540/630 nm with a Multiscan EX ELISA reader (Thermo Labsystems, Cheshire, WA, USA). […] Curves were fitted by GraphPad Prism software[57] using the sigmoidal dose–response model (comparing variable and fixed slopes). The IC50 values were obtained from at least three independent experiments. Tests in adherent HCT-116 colon carcinoma cells and an isogenic p53-knock-out subline thereof were performed in a similar manner, with 1.5 × 10^3 cells seeded in 100 μL of McCoy’s 5A medium (Sigma-Aldrich) per well. […]

[3] = system: multidrug-resistant Colo320 human colon adenocarcinoma cells; assay: MTT antiproliferative assay; assay type: cell-based; settings: for selectivity factor (SF) Colo320: IC50 MRC-5/IC50 Colo320; for IC50: MTT, 72 h
Procedure: as §1, §2, §3

[4] = system: normal human embryonal lung fibroblast cells (MRC-5); assay: MTT antiproliferative assay; assay type: cell-based; settings: read-out: IC50 MRC-5 benign, mean
Procedure: as §1, §2, §3

[5] = design: method as in PMID 31125040; settings: cited from earlier work
[6] = Proton dissociation constants by UV–vis titration; assay type: physicochemical; settings: 30–70% (w/w) DMSO–water; for pKa: DMSO:water 30:70 (w/w) solvent mixture
Procedure: The protonation processes of HL^1nm and its morpholine counterpart HL^1 (Chart 3) and the solution stability of their copper(II) complexes (1nm and 1) were characterized by UV–vis spectrophotometry. […] Based on the characteristic changes in the UV–vis spectra for HL^1nm in the pH range 2–6 (Figure 3a), two relatively well-separated proton dissociation processes were observed and their pKa values were determined (Table 1).
(§4) An Agilent Carry 8454 diode array spectrophotometer was used to record the UV–visible (UV–vis) spectra in the interval 200–800 nm. The path length was 2 or 0.5 cm. Spectrophotometric titrations were performed on samples containing the proligands HL^1, HL^1nm, or their copper(II) complexes (1 and 1nm; see Chart 2) by a KOH solution in the presence of 0.1 M KCl in a DMSO:water 30:70 (w/w) mixture as a solvent at 25.0 ± 0.1 °C in the pH range from 2 to 11. […] An Orion 710A pH meter equipped with a Metrohm combined electrode (type 6.0234.100) and a Metrohm 665 Dosimat burette were used for the pH measurements and titrations. […] The average water ionization constant (pKw) is 14.52 ± 0.05, which corresponds well to the literature data.[103] Argon was passed over the solutions during the titrations. Proton dissociation constants (pKa) of the ligand, overall stability constants (log β) of the copper(II) complexes, and the individual spectra of the various species present in the solution were calculated by the computer program PSEQUAD.[104] β (MpLqHr) is defined for the general equilibrium pM + qL + rH MpLqHr as β (MpLqHr) = [MpLqHr]/[M]^p[L]^q[H]^r where M denotes the copper(II) ion and L the completely deprotonated ligand. The calculations were always made from the experimental titration data measured in the absence of any precipitate in the solution.

[7] = Overall stability constants of copper(II) complexes by UV–vis titration; assay type: physicochemical; settings: 30–70% (w/w) DMSO–water, 298 K
Description: The tridentate coordination via the N,N,N donor set is assumed in [Cu(HL^1nm)]^2+ at such low pH. […] The deprotonation of the non-coordinating hydrazonic nitrogen is likely, and complex [Cu(L^1nm)]^+ is formed. […] However, the absorbance is decreased in the whole wavelength range due to precipitate formation. By the deconvolution of the recorded UV–vis spectra, overall stability constants for the complexes [Cu(HL^1nm)]^2+ and [Cu(L^1nm)]^+ were computed, and log β for [Cu(L^1nm)(OH)] was only estimated (Table 1). In the case of the morpholine hybrid, a somewhat different speciation was obtained as the presence of the pendant morpholine moiety had to be taken into consideration. Log β values for [CuH(HL^1)]^3+, [CuH(L^1)]^2+, and [Cu(L^1)]^+ were computed from the spectrophotometric titration data (Table 1). Since the molar absorbance spectra of [CuH(HL^1)]^3+ and [CuH(L^1)]^2+ complexes resemble those of [Cu(HL^1nm)]^2+ and [Cu(L^1nm)]^+ (Figure 4b), the same coordination modes are likely in these species in couples. […] Increasing the pH (pH > 5), the absorbance is decreased in the whole wavelength range, no isosbestic points are found (indicating the formation of some precipitate), while the λmax is increased. Formation of a mixed hydroxido species [CuH(L^1)(OH)]^+ is also possible. However, the deprotonation of the morpholinium group can take place as well (formation of [Cu(L^1)]^+) in this pH range. As these two processes are overlapping, the two species could not be well distinguished, and the obtained stability constant is quite uncertain.
as §4

[8] = Thermodynamic solubility, UV–vis of saturated solutions; settings: water, 298 K
Procedure: The concentration of the compounds was determined by UV–vis spectrophotometry using stock solutions of the compounds with a known concentration dissolved in pure DMSO and 50% (v/v) DMSO/buffered aqueous solution for the calibration.

[9] = 298 K, I = 0.10 M (KCl), read-out: pKa2

Compound | Solubility in water/DMSO 99/1 [1] [mg mL^–1] | selectivity factor (SF) Colo205 [2] | IC50 [2] [nM] | selectivity factor (SF) Colo320 [3] | IC50 [3] [nM] | IC50 ([4]; 72 h) [nM] | pKa [6, 9] | also measured
Brc1ccc2[nH]c3c(c2c1)-c1ccccc1CN=C3NN=Cc1ccc(CN2CCOCC2)cn1.[Cl][Cu][Cl] [compound 2, CuCl2(HL^2)·2H2O] | ≥ 14 | 2.01 | 2740 | 1.73 | 3190 | 5520 | – | –
CC(=NN=C1NCc2ccccc2-c2c1[nH]c1ccccc21)c1ccccn1 [HL^3nm] | – | – | – | – | – | – | – | log β (copper(II) complexes of HL^3nm) [5]: 6.39; log β [Cu(HL^3nm)]^2+ [5]: 10.96
C(=N\N=C1/NCc2ccccc2-c2c1[nH]c1ccccc21)/c1ccccn1 [HL^1nm] | – | – | – | – | – | – | 4.75 ± 0.01 | pKa ([6]; 298 K, I = 0.10 M (KCl), read-out: pKa1): 2.32 ± 0.01; log β [Cu(HL^1nm)]^2+ ([7]; I = 0.10 M (KCl)): 8.33 and 8.33 ± 0.01; log β [Cu(L^1nm)]^+ ([7]; I = 0.10 M (KCl)): 4.01 and 4.01 ± 0.01; log β [Cu(L^1nm)(OH)] ([7]; only estimated): –3.1 ± 0.1
C(=N\N=C1/NCc2ccccc2-c2c1[nH]c1ccccc21)/c1ccc(CN2CCOCC2)cn1 [HL^1] | – | – | – | – | – | – | 4.53 ± 0.02 | pKa ([6]; 298 K, I = 0.10 M (KCl), read-out: pKa3): 5.65 ± 0.02; log β [CuH(HL^1)]^3+ ([7]; I = 0.10 M (KCl)): 12.38 ± 0.01; log β [CuH(L^1)]^2+ ([7]; I = 0.10 M (KCl)): 8.57 ± 0.01; IC50 ([4]; Homo sapiens, MRC5, 72 h): 3020 nM
C(=NNC1=NCc2ccccc2-c2c1[nH]c1ccccc21)c1ccc(CN2CCOCC2)cn1.[Cl][Cu][Cl] [compound 1, CuCl2(HL^1)·H2O] | ≥ 11 | 1.33 | 1420 | 0.83 | 2290 | 1900 | – | pKa [CuH(HL^1)]^3+ ([6]; 298 K, I = 0.10 M (KCl)): 3.81; pKa [CuH(L^1)]^2+ ([6]; overlapping species (footnote a)): 5.71
CC(=NNC1=NCc2ccccc2-c2c1[nH]c1ccccc21)c1ccc(CN2CCOCC2)cn1.[Cl][Cu][Cl] [compound 3, CuCl2(HL^3)·0.2C3H7OH·0.3H2O] | ≥ 10 | 1.80 | 230 | 1.23 | 335 | 413 | – | Thermodynamic solubility (S) ([8]; pH 5, 20 mM MES buffer): 63.4 µM; Thermodynamic solubility (S) ([8]; pH 7.4, 20 mM HEPES): 6.0 µM
